From patent publication US20090054392A1, “NAPHTHYLPYRIMIDINE, NAPHTHYLPYRAZINE AND NAPHTHYLPYRIDAZINE ANALOGS AND THEIR USE AS AGONISTS OF THE WNT-BETA-CATENIN CELLULAR MESSAGING SYSTEM” (Wyeth, priority 2007, published 2009) come the findings set out here.

Data set [1] has as its system Dkk1-LRP5-TCF-Luciferase.
Data set [2] relates to Dkk1-LRP5-TCF-Luciferase. Kind of data set: Functional Dkk1-LRP5-TCF-Luciferase Assay in U2OS Cells. Conditions: for EC50 / fold induction at 2 µM / fold induction at 20 µM: Homo sapiens, U2OS; for fold induction at 2 µM: read-out: B = TCF ACTIVITY/DMSO CONTROL Fold induction @ 2.0 uM, 2.0 uM compound; for fold induction at 20 µM: read-out: C = TCF ACTIVITY/DMSO CONTROL Fold induction @ 20.0 uM, 20.0 uM compound; for A = MAX FOLD Induction/DMSO CONTROL: maximum fold induction over DMSO control.

The EC50 is the concentration that produces a half-maximal response. High values mean lower potency in that assay, low ones higher potency in that assay.

For the compound “6-{2-[4-(aminomethyl)piperidin-1-yl]pyrimidin-4-yl}-2-naphthyl acetate”, in the data set with Dkk1-LRP5-TCF-Luciferase [1] (2 µM), the “B = TCF ACTIVITY/DMSO CONTROL Fold induction @ 2.0 uM” value worked out at 1.435 fold. Also, the “C = TCF ACTIVITY/DMSO CONTROL Fold induction @ 20.0 uM” value in the data set on Dkk1-LRP5-TCF-Luciferase [1] (20 µM) is 1.995 fold.

For `O=CNC1CCCN(c2nccc(-c3ccc4ccccc4c3)n2)CC1` (centres unmarked) [{1-[4-(2-naphthyl)pyrimidin-2-yl]azepan-4-yl}formamide], in the data set with Dkk1-LRP5-TCF-Luciferase [2], the EC50 is 2250 nM, the fold induction at 2 µM came out at 1.5, the fold induction at 20 µM was 2.05 and the “A = MAX FOLD Induction/DMSO CONTROL” value came to 1.800 fold.

In the case of `OCC1CCN(c2nccc(-c3ccc4ccccc4c3)n2)CC1` [{1-[4-(2-naphthyl)pyrimidin-2-yl]piperidin-4-yl}methanol], in the data set with Dkk1-LRP5-TCF-Luciferase [2], the fold induction at 2 µM is 1.81 and the fold induction at 20 µM stood at 0.02.

`OCC1CCN(c2nccc(-c3ccc4ccccc4c3)n2)C1` (centres unmarked) [{1-[4-(2-naphthyl)pyrimidin-2-yl]pyrrolidin-3-yl}methanol]: in the data set on Dkk1-LRP5-TCF-Luciferase [2], a half-maximal effect (EC50) was put at 925 nM, the fold induction at 2 µM was determined as 2.13, the fold induction at 20 µM came out at 1.42 and the “A = MAX FOLD Induction/DMSO CONTROL” value was 1.975 fold.

With `NCC1(CN)C[C@@H]2C[C@H]1CN2c1nccc(-c2ccc3ccccc3c2)n1` [{(1S,4R)-2-[4-(2-naphthyl)pyrimidin-2-yl]-2-azabicyclo[2.2.1]heptane-5,5-diyl}dimethanamine], in the data set on Dkk1-LRP5-TCF-Luciferase [2], the fold induction at 2 µM came to 1.2.

As for `OC[C@H]1CCCN1c1nccc(-c2ccc3ccccc3c2)n1` [{(2R)-1-[4-(2-naphthyl)pyrimidin-2-yl]pyrrolidin-2-yl}methanol], in the data set on Dkk1-LRP5-TCF-Luciferase [2], the fold induction at 2 µM came out at 1.85 and the fold induction at 20 µM was found to be 1.78.

As for `OC[C@@H]1CCCN1c1nccc(-c2ccc3ccccc3c2)n1` [{(2S)-1-[4-(2-naphthyl)pyrimidin-2-yl]pyrrolidin-2-yl}methanol], in the data set on Dkk1-LRP5-TCF-Luciferase [2], the fold induction at 2 µM was 2.05 and the fold induction at 20 µM worked out at 2.02.

Regarding `OC[C@@H]1CCCN(c2nccc(-c3ccc4ccccc4c3)n2)C1` [{(3R)-1-[4-(2-naphthyl)pyrimidin-2-yl]piperidin-3-yl}methanol], in the data set on Dkk1-LRP5-TCF-Luciferase [2], the fold induction at 2 µM is 1.98, the fold induction at 20 µM came out at 1.08 and the “A = MAX FOLD Induction/DMSO CONTROL” value is 1.800 fold.

Consider `OC[C@H]1CCCN(c2nccc(-c3ccc4ccccc4c3)n2)C1` [{(3S)-1-[4-(2-naphthyl)pyrimidin-2-yl]piperidin-3-yl}methanol], for which, in the data set with Dkk1-LRP5-TCF-Luciferase [2], the fold induction at 2 µM is 2.8, the fold induction at 20 µM amounted to 1.81 and the “A = MAX FOLD Induction/DMSO CONTROL” value was 1.840 fold.
